Among the data in patent publication US20130150350A1, “Derivatives of 1-Phenyl-1,5-Dihydro-Benzo[B] [1,4]Diazepine-2,4-Dione as Inhibitors of HIV Replication” (BOEHRINGER INGELHEIM INTERNATIONAL GMBH, priority 2010, published 2013) are IC50 and EC50 values, retold here.

The target of test [1] is T1, HIV-1NL4-3 CA-NC protein (SEQ ID NO: 2) (Human immunodeficiency virus type 1 group M subtype B, UniProt P12493, G226D).
T1 construct: HIV-1NL4-3 CA-NC, Gag residues 133-432; initiator Met (start codon introduced by PCR primer) (N); made in house; host or cells: E. coli BL21(DE3), pET-11a
Description: Immobilized capsid assembly assay (CAA). In kind it is biochemical. The source says:
(§1) SEQ ID NO: 1 is a nucleic acid of 900 base pairs encoding HIV-1NL4-3 CA-NC, Gag residues 133-432, having the CA G94D mutation (SEQ ID NO: 2). SEQ ID NO: 1, is transferred to pET-11a expression vector (Novagen™) by PCR amplification using primers that introduce an NdeI site and a start codon at the 5′-end and a BamHI site and a stop codon at the 3′-end. Resistance mutations in CA were identified by passage of the HIV-1 virus in the presence of compounds of the invention, namely V27A/I, K30R, S33G, V36T, T58I, G61E, G208A/R, E213G, K30R/T58I, K30R/G208R, V36T/G208R, S33G/T58I, S33G/G208R and T58I/G208R, all numbered with reference to SEQ ID NO: 2,. These resistance mutations may be introduced in the expression vector using the QuikChange® II Site-Directed Mutagenesis Kit (Stratagene) according to the manufacturer's instructions. SEQ ID NOS: 2 is expressed in the BL21(DE3) E. coli cells (Novagen™). Briefly, LB media is inoculated with overnight pre-cultures and grown at 37° C. until mid log-phase (Abs600 ˜0.6), protein expression is induced by addition of 0.5-1 mM isopropyl-β,D-thiogalactopyranoside (IPTG) and carried out for 4 to 6 hours at 30° C. Cells are harvested by centrifugation and pellets are stored at −80° C. until purification.
(§2) Purification of CA-NC (SEQ ID NO: 2) is as follows: 5 to 10 g of cell paste are lysed by sonication in 40 ml of Buffer A [20 mM Tris pH 7.5; 1 μM ZnCl2; 10 mM β-mercaptoethanol] supplemented with 0.5M NaCl and Complete EDTA-free® protease inhibitors tablets (Roche). Nucleic acids and cell debris are removed by adding 0.11 volumes of 0.2 M ammonium sulfate and an equivalent volume of 10% poly-(ethyleneimine) pH 8.0, stirring the sample for 20 minutes at 4° C., followed by centrifugation at 30 000×g for 20 minutes. SEQ ID NO: 2 is recovered from the supernatant by adding 0.35 volumes of saturated ammonium sulfate solution followed by centrifugation at 10 000×g for 15 minutes. The pellet is dissolved in 10 ml of Buffer A+0.1 M NaCl and dialyzed overnight in the same buffer but at 0.05 M NaCl (Dialysis Buffer). The sample is then cleared by centrifugation and passed on a 1-ml HiTrapTMSP HP column (GE Healthcare) pre-equilibrated with Dialysis Buffer. SEQ ID NO: 2 is eluted with Buffer A+0.5 M NaCl, fractions containing the protein are pooled; concentration determination is done by Abs280 using the calculated molar extinction coefficient (E=40220 M-1 cm-1).
Reacti-Bind Neutravidin Coated black 384-well plates (Pierce Cat#15402) are washed with 80 μl/well of Buffer A (50 mM Tris pH 8.0; 350 mM NaCl; 10 μM ZnSO4; 0.0025% CHAPS (w/v); 50 μg/ml bovine serum albumin (BSA); 1 mM DTT). Immobilization of a 5′-end biotin labeled (TG)25 oligonucleotide (Integrated DNA Technology Inc.) is carried out by adding 50 μl/well of a 25 nM solution of oligonucleotide in Buffer A+5 mg/ml of BSA (Sigma™) and incubating overnight. Unbound material is removed by two 80 μl/well washes with Buffer A. Assembly reactions are performed in 60 μl/well reactions comprising test compound, 100 nM of 5′-end fluorescein labeled (TG)25 oligonucleotide (Integrated DNA Technology Inc.) and 2 μM of CA-NC protein (SEQ ID NO: 2), using Buffer A+1% DMSO. Assembly reactions are incubated for 2 hours at room temperature and non-immobilized material is removed by two successive 80 μl/well washes with Buffer A. Finally, 80 μl/well of Buffer A+0.1% sodium dodecyl sulfate (SDS) is added and incubated for 15 minutes prior to quantification of captured fluorescence on a Victor2 plate reader (PerkinElmer Life Sciences) equipped with fluorescein excitation and emission filters using the standard manufacturer's settings for fluorescein fluorescence. The amount of captured fluorescence is considered to be proportional to the level of assembly. The IC50 values for each compound are generated by fitting inhibition curves from ten-point dilution series to the following equation: […]

In test [2] the target is T2, assembled HIV-1 capsid complexes (CA-NC protein, SEQ ID NO: 2) (Human immunodeficiency virus type 1 group M subtype B, UniProt P12493, G226D).
T2 construct: HIV-1NL4-3 CA-NC, Gag residues 133-432; initiator Met (start codon introduced by PCR primer) (N); made in house; host or cells: E. coli BL21(DE3), pET-11a
Description: Capsid disassembly assay (CDA). Type of test: biochemical.
Text: The GAG polyprotein is the major structural protein required for HIV viral particle assembly. During the maturation process, Gag is cleaved by the viral protease and releases its four major proteins, matrix (MA), capsid (CA), nucleocapside (NC) and p6, as well as two spacer peptides termed SP1 and SP2. This triggers profound morphological changes to the viral particle as CA will reassemble to form the viral core, a structure that is essential for viral infectivity.
as §1, §2
Reacti-Bind Neutravidin Coated black 384-well plates (Pierce Cat#15402) are washed with 80 μl/well of Buffer A (50 mM Tris pH 8.0; 350 mM NaCl; 10 μM ZnSO4; 0.0025% CHAPS (w/v); 50 μg/ml BSA; 1 mM DTT). Immobilization of a 5′-end biotin labeled (TG)25 oligonucleotide (Integrated DNA Technology Inc.) is carried out by adding 50 μl/well of a 25 nM solution of oligonucleotide in Buffer A+5 mg/ml BSA and incubating overnight. Unbound material is removed by two 80 μl/well washes with Buffer A. Assembly reactions are performed in 60 μl/well reactions comprising 100 nM of 5′-end fluorescein labeled (TG)25 oligonucleotide (Integrated DNA Technology Inc.) and 2 μM of CA-NC protein (SEQ ID NO: 2), using Buffer A. Assembly reactions are incubated for 2 hours at room temperature and non-immobilized material is removed by washing 80 μl/well with Buffer A. Test compounds, serially diluted in Buffer A+0.125% dimethyl sulfoxide (DMSO), are added to the wells (60 μl/well) and incubated at room temperature for 2 hours. […]

Test [3] concerns HIV-1 replication in C8166 LTRluc cells. Nature of the test: C8166 HIV-1 luciferase assay. Type of test: cell-based. The note with it: Human immunodeficiency virus 1, 72 h, inhibition of HIV-1 replication, moi 0.005, 3 days. As to the method:
The assay used to measure inhibition of HIV replication is as described in WO 2004/050643, pages 73-75, herein incorporated by reference, with the following modifications:
Serial dilutions of HIV-1 inhibitors are prepared in complete media from DMSO stock solutions. Eleven serial dilutions of desired concentration are prepared in a 1 mL deep well titer plate (96 wells). The 12th well contains complete media with no inhibitor and serves as the positive control. All samples contain the same concentration of DMSO 0.1% DMSO). Inhibitor is added, to triplicate wells, of a 96 well tissue culture treated clear view black microtiter plate (Corning Costar catalogue #3904). The total volume per well is 200 μL of media containing the cells and inhibitor. The last row is reserved for uninfected C8166 LTRluc cells to serve as the background blank control and the first row is media alone.
Count C8166 LTRluc cells and place in a minimal volume of complete RPMI 1640 in a tissue culture flask (ex. 30×10^6 cells in 10 mL media/25 cm^2 flask). Infect cells with HIV-1 at a moi of 0.005. Incubate cells for 1.5 hours at 37° C. on a rotating rack in a 5% CO2 incubator. Resuspend cells in complete RPMI to give a final concentration of 25,000-cells/well. Add cells to wells of 96 well microtiter plate containing inhibitors. Add 25,000 uninfected C8166—LTRluc cells/well in 200 μL complete RPMI to last row for background control. Incubate cells at 37° C. in 5% CO2 incubator for 3 days.

In general, IC50 refers to the concentration that gives 50% inhibition. A higher IC50 goes with weaker potency in that assay. As usually defined, the EC50 is the midpoint of the concentration-response curve. A high value points to a need for much substance. Regarding `CN1C(=O)C(c2ccc(O)cc2)C(=O)N(c2ccccc2)c2cc(C(F)(F)F)ccc21` (stereo not drawn) [Compound 2009], the IC50 in test [1] worked out at 910 nM; in test [2], 140 nM. In test [3], this molecule had an EC50 of 900 nM.

With `CCN1C(=O)C(c2ccccc2)C(=O)N(c2cccs2)c2cc(C(F)(F)F)ccc21` (stereo not drawn) [Compound 2003], the results for the IC50 in test [1] and in test [2] were 810 nM and 390 nM, respectively. For the same molecule, in test [3], the EC50 is 2500 nM.

As to `CCN1C(=O)C(c2ccccc2)C(=O)N(c2ccccc2)c2cc(C(F)(F)F)ccc21` (stereo not drawn) [Compound 2002], the IC50 was 730 nM in test [1] and 480 nM in test [2]. Besides, the EC50 in test [3] was 2600 nM.

As for `CCCn1cc(-c2cc(C3C(=O)N(CC)c4ccc(C(F)(F)F)cc4N(c4ccccc4)C3=O)cc(OC)c2O)cn1` (stereo not drawn) [Compound 2059], the values for the IC50 in test [1] and in test [2] were 450 nM and 160 nM, respectively. In test [3], a half-maximal effect (EC50) was put at 70 nM.
